Measurements taken from patent US8895695B2, “Template-fixed beta-hairpin peptidomimetics with CXCR4 antagonizing activity” (priority 2003, dated 2014).

Key:
CCRF-CEM cells = experiment: Chemotactic assay (cell migration assay); type: cell-based; conditions: 1 nM SDF-1, 4 hours
Protocol: (§1) All fine chemicals came from Merck (Darmstadt, Germany).
2.7. Chemotactic Assay (Cell Migration Assay)
The chemotactic response of CCRF-CEM cells to a gradient of stromal cell-derived factor 1α (SDF-1) was measured using disposable assay plates from Neuroprobe (5μ pore size) (Gaithersburg, Md.), according to the manufacturer's directions and references therein [especially ref. 8, below]. Briefly, one 175 cm^2 flask was washed once with Dubecco's phosphate buffered saline (DPBS), and trypsinized for 10 minutes or until cells had lifted. The trypsin was neutralized by the addition of fresh medium containing serum and the cells were pelleted, washed once in DPBS, and resuspended at 1-0.5×10^7 cells/ml in RPMI+0.5% bovine serum albumin (BSA). 45 μl of cell suspension were mixed with 5 μl of 10-fold concentrated PEM peptide diluted in the same assay medium. […] The optical absorbance at 595 nm (ABS595) was read using a Tecan Genios plate reader with Magellan software. The number of cells migrated was determined by comparing ABS595 values against a standard curve generated with a known number of cells in the assay plate and were plotted against SDF-1 concentration to obtain a sigmoidal curve and to determine the IC50 values. The values for IC50 were determined using the Trendline function in Microsoft Excel by fitting a logarithmic curve to the averaged datapoints.

[1] = Pharmacokinetic study (PK) after single i.v. and i.p. administration; type: in vivo, male CD-1 mice
Protocol: 2.9. Pharmacokinetic Study (PK)
30 grams (±20%) male CD-1 mice obtained from Charles River Laboratories Deutschland GmbH were used in the study. The vehicle, physiological saline, was added to give a final concentration of 1 mg/ml of the compounds. […] Approximately 250-300 μl of blood was removed under light isoflurane anesthesia from the retro-orbital plexus at predetermined time intervals (0, 5, 15, 30 min and 1, 2 and 3 hours for the i.v. study and 0, 15, 30 min and 1, 2, 4 and 8 hours for the i.p. study) and added to heparinized tubes. Plasma was removed from pelleted cells upon centrifugation and frozen at −80° C. prior to HPLC-MS analysis.
Preparation of the Plasma Calibration Samples
“Blank” mouse plasma from untreated animals was used. […] The OASIS® HLB cartridges were conditioned with 1 ml of methanol and then with 1 ml of 1% NH3 in water. Samples were then diluted with 700 μl of 1% NH3 in water and loaded.
The plate was washed with 1 ml of methanol/1% NH3 in water 5/95. Elution was performed using 1 ml of 0.1% TFA in methanol.
The plate containing eluates was introduced into the concentrator system and taken to dryness. The residues were dissolved in 100 μL of formic acid 0.1%/acetonitrile, 95/5 (v/v) and analysed in the HPLC/MS on a reverse phase analytical column (Jupiter C18, 50×2.0 mm, 5 μm, Phenomenex), using gradient elution (mobile phases A: 0.1% formic acid in water, B: Acetonitrile; from 5% B to 100% B in 2 min.).
Preparation of Plasma Samples
Samples coming from animal treatments were pooled in order to obtain an appropriate volume for the extraction. If the total volume obtained was less than 0.2 ml the appropriate amount of “blank” mouse plasma was added in order to keep the matrix identical to the calibration curve. Samples were than spiked with IS and processed as described for the calibration curve.
Pharmacokinetic Evaluation
PK analysis was performed on pooled data (generally n=2 or 3) using the software PK solutions 2.0™ (Summit Research Service, Montrose, Colo. 81401 USA). The area under the curve AUC was calculated by the linear trapezoidal rule. AUC(t-∞) was estimated as Ct/b (b: elimination rate constant). […] the sum of AUC(0-t) and AUC(t-∞). Elimination half-life was calculated by the linear regression on at least three data points during the elimination phase. The time intervals selected for the half-life determinations were evaluated by the correlation coefficient (r^2), which should be at least above 0.85 and most optimally above 0.96. In case of i.v. administration the initial concentration at tzero was determined by extrapolation of the curve through the first two time points. Finally bioavailability after i.p. administration was calculated from the normalised AUC(0-∞) ration after i.p. versus i.v. administration.

[2] = Cytotoxicity assay (MTT reduction), HELA cells; conditions: human, HELA cells (Acc57);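 note: MTT reduction read as absorbance at 595 nm, blank-corrected and expressed as percent growth relative to the time-zero cell reading, triplicate wells per concentration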
Protocol: Each peptide concentration was assayed in triplicate. […] Wells were then washed once with PBS and subsequently 100 μl MTT reagent (0.5 mg/mL in medium RPMI1640 and, respectively, DMEM) was added to the wells. This was incubated at 37° C. for 2 hours and subsequently the medium was aspirated and 100 μl isopropanol was added to each well. […] For each concentration averages were calculated from triplicates. The percentage of growth was calculated as follows: (OD595peptide-OD595Tz-OD595Empty well)/(OD595Tz-OD595Empty well)×100% and was plotted for each peptide concentration.
‘CCR5’ cells were cultured in DMEM medium with 4500 mg/ml glucose, 10% fetal bovine serum (FBS), supplemented with 50 U/ml Penicillin and 50 μg/ml Streptomycin (Pen/Strept.). Hut/4-3 cells were maintained in RPMI medium, 10% FBS, supplemented with Pen/Strept. and 10 mM HEPES. HELA cells and CCRF-CEM cells were maintained in RPMI1640 plus 5% FBS, Pen/Strept and 2 mM L-Glutamine. Cos-7 cells were grown in DMEM medium with 4500 mg/ml glucose supplemented with 10% FCS, Pen/Strept. and 2 mM L-Glutamine. All cell lines were grown at 37° C. at 5% CO2.

[3] = tested on: 'CCR5' cells / Hut/4-3 cells co-cultivation; experiment: FIGS-Assay; type: cell-based; conditions: 200 nM peptide, 48 hours of co-cultivation
Protocol: The assay was performed according to ref. 5, below. Stock dilutions of the peptides (10 mM) were prepared by dissolving in 10 mM Tris-HCl at room temperature. Stock solutions were kept at +4° C., light protected. Working dilutions were prepared extemporaneously by serial dilution in Phosphate Buffered Saline (PBS) and added in a final volume of 10 μl directly to the cell cultures. After 48 hours of co-cultivation the cultures were rinsed with PBS and then exposed to glutaraldehyde/formaldehyde (0.2%/2%) in PBS for five minutes. For photometric quantification the fixed cultures were subsequently incubated with ortho-nitro-phenyl-galactopyranoside (ONPG) as a β-galactosidase substrate, which was enzymatically converted into the chromophore ortho-nitrophenol (ONP). The read out is directly obtained by measuring optical density of wells at 405 nm in an iEMS 96well-plate reader.
as §1

[4] = male, CD-1, mouse, in vivo, ip, 10 mg/kg
[5] = male, CD-1, mouse, in vivo, iv, 2 mg/kg

With `N=C(N)NCCC[C@@H]1NC(=O)[C@@H]2CSSC[C@H](NC(=O)[C@H](Cc3ccc4ccccc4c3)NC(=O)[C@H](CCCNC(=N)N)NC(=O)[C@H](CCCNC(=N)N)NC(=O)[C@H]3CCCN3C(=O)CNC1=O)C(=O)N[C@@H](Cc1ccc(O)cc1)C(=O)N[C@@H](CCCNC(N)=O)C(=O)N[C@@H](CCCCN)C(=O)N1CCC[C@@H]1C(=O)N1CCC[C@H]1C(=O)N[C@@H](Cc1ccc(O)cc1)C(=O)N[C@@H](CCCNC(=N)N)C(=O)N[C@@H](CCCNC(N)=O)C(=O)N2` [Ex. 51] the IC50 (CCRF-CEM cells) was 0.275 µM, the “times lower normalised Cmax after i.p. administration versus i.v.” value ([1]; i.p. 10 mg/kg versus i.v. 2 mg/kg, mouse) was 45 times and the AUC [1, 4] was 1300 ng·h/mL. The AUC(0-inf) [1, 4] was 12900 ng·h/mL, the AUC(0-t) [1, 4] was 11100 ng·h/mL and the Tmax [1, 4] was 2 h. It also gave a half-life [1, 4] of 2.5 h, a level at 0.25 h [1, 4] of 673 ng/mL and a level at 0.5 h [1, 4] of 1570 ng/mL. The level at 1 h [1, 4] was 2010 ng/mL, the level at 2 h [1, 4] was 3160 ng/mL and the level at 4 h [1, 4] was 1020 ng/mL. The level at 8 h [1, 4] was 519 ng/mL, the Cmax ([1]; male, CD-1, mouse, in vivo, ip, 10 mg/kg, Cmax ng/ml) was 3160 ng/mL and the Cmax ([1]; male, CD-1, mouse, in vivo, ip, 10 mg/kg, Cmax norm.) was 316 ng/mL. For the same compound, the AUC [1, 5] was 953 ng·h/mL, the AUC(0-inf) [1, 5] was 1900 ng·h/mL and the AUC(0-t) [1, 5] was 1700 ng·h/mL. For the same compound, the Tmax [1, 5] was 0 h, the half-life [1, 5] was 2.8 h and the level at 0.083 h [1, 5] was 1460 ng/mL. For the same compound, the level at 0.25 h [1, 5] was 328 ng/mL, the level at 0.5 h [1, 5] was 300 ng/mL and the level at 1 h [1, 5] was 80 ng/mL. For the same compound, the level at 2 h [1, 5] was 68 ng/mL, the level at 3 h [1, 5] was 49 ng/mL and the Cmax ([1]; male, CD-1, mouse, in vivo, iv, 2 mg/kg, Cmax ng/ml (extrapolated Cinitial)) was 28600 ng/mL. The Cmax ([1]; male, CD-1, mouse, in vivo, iv, 2 mg/kg, Cmax observed) was 1460 ng/mL, the “% absorbed (F) (percentage of normalized AUC0-inf. intraperitoneal against normalized AUC0-inf i.v.)” value ([1]; mouse, in vivo, 2 mg/kg) was 100% and the “% absorbed (F) (percentage of normalized AUC0-inf. intraperitoneal against normalized AUC0-inf i.v.)” value ([1]; mouse, in vivo, 10 mg/kg) was 136%. For the same compound, the “β” value ([1]; mouse, in vivo, ip, 10 mg/kg) was 0.28 h⁻¹, the “β” value ([1]; mouse, in vivo, iv, 2 mg/kg) was 0.24 h⁻¹ and the CC50 at 48 h [2] was 97 µM. For the same compound, the “FIGS % inhibition at 200 nM” value [3] was 93.9%.
